Results as given in PMC9102038 (International Journal of Molecular Sciences, 2022).
Like-named read-outs stand apart in the source and are kept apart here.

Columns and labels:
[1] = target: T1, GAL4–human PPARα-LBD chimera (Homo sapiens, UniProt Q07869); experiment: GAL4–hPPARα-LBD dual luciferase transactivation assay in COS-7 cells
T1 sequence (Q07869 239-466 limits assumed): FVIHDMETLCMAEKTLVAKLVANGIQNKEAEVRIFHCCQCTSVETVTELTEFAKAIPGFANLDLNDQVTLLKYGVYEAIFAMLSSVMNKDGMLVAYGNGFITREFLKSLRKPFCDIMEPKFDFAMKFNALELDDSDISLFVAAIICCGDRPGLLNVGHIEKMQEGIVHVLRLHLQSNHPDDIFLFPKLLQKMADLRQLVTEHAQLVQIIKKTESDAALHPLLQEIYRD

[2] = target: T2, human PPARα-LBD (Homo sapiens, UniProt Q07869); experiment: TR-FRET PGC1α coactivator peptide recruitment assay, PPARα-LBD
T2 sequence (Q07869 200-468): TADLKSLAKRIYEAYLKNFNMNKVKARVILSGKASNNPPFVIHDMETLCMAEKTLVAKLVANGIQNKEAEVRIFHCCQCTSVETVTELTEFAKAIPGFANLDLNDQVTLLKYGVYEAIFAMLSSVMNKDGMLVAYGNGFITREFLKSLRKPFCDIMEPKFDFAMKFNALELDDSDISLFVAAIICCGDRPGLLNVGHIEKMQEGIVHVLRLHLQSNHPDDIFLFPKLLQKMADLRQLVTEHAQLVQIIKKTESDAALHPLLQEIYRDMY

[3] = target: T2, human PPARα-LBD; experiment: TR-FRET SRC1 coactivator peptide recruitment assay, PPARα-LBD
[4] = tested on: PPARγ; set-up: method as in PMID 14982965; conditions: read-out: EC50, PPARγ transactivation, previous experiments; cited from earlier work
[5] = target: T3, PPARδ-LBD (Homo sapiens, UniProt Q03181); experiment: TR-FRET SRC1 coactivator peptide recruitment assay, PPARδ-LBD
T3 sequence (Q03181 170-441): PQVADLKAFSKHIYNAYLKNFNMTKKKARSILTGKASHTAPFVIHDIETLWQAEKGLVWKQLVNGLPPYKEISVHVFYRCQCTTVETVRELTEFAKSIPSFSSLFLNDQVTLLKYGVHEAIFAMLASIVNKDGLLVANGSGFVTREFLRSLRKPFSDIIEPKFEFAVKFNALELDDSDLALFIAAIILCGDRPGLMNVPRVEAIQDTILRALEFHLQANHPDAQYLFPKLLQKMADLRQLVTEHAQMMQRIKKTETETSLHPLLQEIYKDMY

[6] = target: T4, GAL4–human PPARδ-LBD chimera (Homo sapiens, UniProt Q03181); experiment: GAL4–hPPARδ-LBD dual luciferase transactivation assay in COS-7 cells; conditions: for efficacy, PPARδ-LBD-mediated transactivation: maximal effect of GW501516 (0.02 µM) as 100%
T4 sequence (Q03181 211-439 limits assumed): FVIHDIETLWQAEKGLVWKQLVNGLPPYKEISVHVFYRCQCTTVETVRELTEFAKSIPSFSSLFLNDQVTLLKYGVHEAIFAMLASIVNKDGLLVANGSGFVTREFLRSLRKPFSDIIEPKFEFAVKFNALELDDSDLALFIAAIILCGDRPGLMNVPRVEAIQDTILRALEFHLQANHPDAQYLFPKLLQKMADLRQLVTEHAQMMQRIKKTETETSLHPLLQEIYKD

[7] = tested on: PPARα; set-up: method as in PMID 14982965; conditions: read-out: EC50, PPARα transactivation, previous experiments; cited from earlier work
[8] = target: T5, human PPARγ-LBD (Homo sapiens, UniProt P37231); experiment: TR-FRET PGC1α coactivator peptide recruitment assay, PPARγ-LBD
T5 sequence (P37231 203-477 isoform P37231-2): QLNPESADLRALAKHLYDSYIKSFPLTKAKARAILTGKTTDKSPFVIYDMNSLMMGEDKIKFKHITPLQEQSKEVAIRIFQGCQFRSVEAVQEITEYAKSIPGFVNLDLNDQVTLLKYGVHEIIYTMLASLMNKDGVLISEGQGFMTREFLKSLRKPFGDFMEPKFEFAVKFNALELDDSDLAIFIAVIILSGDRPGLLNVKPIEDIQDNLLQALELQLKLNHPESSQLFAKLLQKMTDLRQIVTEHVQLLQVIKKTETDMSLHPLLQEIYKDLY

[9] = single dose (200 mg) of bezafibrate; read-out: maximal plasma concentration (Cmax); cited from earlier work
[10] = target: T6, GAL4–human PPARγ-LBD chimera (Homo sapiens, UniProt P37231); experiment: GAL4–hPPARγ-LBD dual luciferase transactivation assay in COS-7 cells; conditions: for efficacy, PPARγ-LBD-mediated transactivation: maximal effect of GW1929 (1 µM) as 100%
T6 sequence (P37231 238-503 limits assumed): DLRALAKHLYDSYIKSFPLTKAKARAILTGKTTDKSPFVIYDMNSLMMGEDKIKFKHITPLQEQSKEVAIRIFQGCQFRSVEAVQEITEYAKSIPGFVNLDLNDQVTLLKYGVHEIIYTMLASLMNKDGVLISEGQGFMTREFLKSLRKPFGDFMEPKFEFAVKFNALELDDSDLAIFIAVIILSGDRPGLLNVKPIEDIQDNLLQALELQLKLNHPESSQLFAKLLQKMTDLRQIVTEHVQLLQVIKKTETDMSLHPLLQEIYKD

[11] = target: T5, human PPARγ-LBD; experiment: TR-FRET SRC1 coactivator peptide recruitment assay, PPARγ-LBD
[12] = tested on: PPARδ; set-up: method as in PMID 14982965; conditions: read-out: EC50, PPARδ transactivation, previous experiments; cited from earlier work
[13] = target: T3, PPARδ-LBD; experiment: Circular dichroism thermostability assay, PPARδ-LBD; type: binding; set-up: His-tag (pET28a) (N, cleaved yes); made in house; host or cells: E. coli Rosetta (DE3) pLysS; conditions: CD at 222 nm, 10 µM protein, versus 0.1% DMSO
Experimental: Ligand-induced alterations in Tm values at 222 nm were investigated as types of reflection of α-helical stable structures of PPARs because PPAR ligand binding induces stabilization of the LBP [23, 24].
PPARα/δ/γ-LBD proteins (10 µM) were incubated with different concentrations of ligands in buffer A. CD spectra were monitored within 200–260 nm at increasing temperatures from 30 °C to 70 °C (2 °C/min) using a J-1500 spectropolarimeter equipped with a PTC-510 thermal controller (JASCO, Tokyo, Japan). […] The thermal stability of PPARs was investigated by continuously monitoring the ellipticity changes at 222 nm during thermal denaturation, and a single-site sigmoidal dose-response curve fitting program (Prism 5) was used to obtain the melting temperature (Tm) that corresponds to the midpoint of the denaturation process. The ligand-induced increases in Tm values are defined as ∆Tm.

[14] = target: T3, PPARδ-LBD; experiment: TR-FRET PGC1α coactivator peptide recruitment assay, PPARδ-LBD
[15] = COS-7 cells, maximal effect of GW7647 (0.1 µM) as 100%

Compound	EC50 [5]	EC50 [6]	efficacy, PPARγ-LBD-mediated transactivation ([10]; COS-7 cells)	efficacy, PPARα-LBD-mediated transactivation [1, 15]	EC50 [14]	efficacy, PPARδ-LBD-mediated transactivation ([6]; COS-7 cells)	EC50 [8]	EC50 [10]	EC50 [11]	further results
CC(C)(Sc1ccc(CCN(CCCCC2CCCCC2)C(=O)NC2CCCCC2)cc1)C(=O)O [GW7647]										maximal effect, PPARα-LBD-mediated transactivation (× of the basal activity) ([1]; COS-7 cells, at 0.1 µM): 5.73 ×; maximal effect, PGC1α recruitment to PPARα-LBD (× of the basal activity) ([2]; at 1 µM): 8.87 ×; maximal effect, SRC1 recruitment to PPARα-LBD (× of the basal activity) ([3]; at 1 µM): 6.12 ×
CC(C)(Oc1ccc(CCNC(=O)c2ccc(Cl)cc2)cc1)C(=O)O [bezafibrate]	31.8 µM	86.7 µM	77.1%			15.2%	48.9 µM	178 µM	76 µM	EC50 [4]: > 100 µM; efficacy, PPARα-LBD-mediated transactivation [1]: 93.6%; EC50 [7]: 25 µM; Cmax [9]: 20.4 µM; EC50 [12]: 95 µM
GW1929										maximal effect, PGC1α recruitment to PPARγ-LBD (× of the basal activity) ([8]; at 1 µM): 5.80 ×; maximal effect, PPARγ-LBD-mediated transactivation (× of the basal activity) ([10]; COS-7 cells, at 1 µM): 2.26 ×; maximal effect, SRC1 recruitment to PPARγ-LBD (× of the basal activity) ([11]; at 1 µM): 9.26 ×

The next lines start with results.

EC50 [5]	EC50 [6]	efficacy, PPARγ-LBD-mediated transactivation ([10]; COS-7 cells)	efficacy, PPARα-LBD-mediated transactivation [1, 15]	EC50 [14]	Compound	efficacy, PPARδ-LBD-mediated transactivation ([6]; COS-7 cells)	EC50 [8]	EC50 [10]	EC50 [11]	further results
> 500 µM	> 500 µM	87.7%	104%	> 100 µM	CC(C)(Oc1ccc(C(=O)c2ccc(Cl)cc2)cc1)C(=O)O [fenofibric acid]					effect on Tm of PPARδ-LBD (thermostability, in words) [13]: increased thermostability; EC50 [1]: 9.47 µM; PPARδ-LBD-mediated transactivation (in words) ([6]; COS-7 cells): did not induce transactivation; EC50 [2]: 20.9 µM; EC50 [3]: 9.87 µM; PGC1α recruitment to PPARδ-LBD (in words) ([14]; TR-FRET): did not recruit PGC1α
4.82 µM	1.39 µM	119%	107%	6.11 µM	CC[C@@H](Oc1cccc(CN(CCCOc2ccc(OC)cc2)c2nc3ccccc3o2)c1)C(=O)O [pemafibrate]	11.3%	9.7 µM	> 5 µM	> 10 µM	
